Measured values: patent US20250171465A1, “AKT INHIBITORS” (Stablix, Inc., priority 2023, published 2025)

Columns and labels:
Type in all cases: cell-based
AKT = AKT ubiquitination assay (TUBE pulldown, western blot); conditions: KU-19-19 cells, 3 uM of compound, 6 hrs
Experimental: For each assay condition. 5.0×10^6 KU-19-19 cells were seeded in 10 cm dish grown in RPMI (Invitrogen. Carlsbad. CA. USA) supplemented with 10% fetal bovine serum. Cells were incubated overnight at 37° C. in a humidified atmosphere containing 5% CO2. […]. Next day, media was removed and cells were rinsed with 0.1% FBS cell culture media. Then 10 mL of 0.1% FBS+RPMI containing 3 uM of compound was added to each plate and treated with compound for 6 hrs. Cells were washed 3× with PBS and placed on ice. 900 μL of lysis buffer (50 mM Tris-HCl pH 7.4, 150 mM NaCl. 1% NP-40, 1% Sodium deoxycholate. 2 mM EDTA, 10% Glycerol, 5 mM Iodoacetamide (dissolved in ddH2O, MCE, Cat #HY-34477), 1×HALT protease\phosphatase inhibitor (Pierce. Cat #78440), 1×PMSF (Sigma. Cat #93482-50ML-F), 5 mM 1.10 Phenanthroline (in DMSO, MCE, Cat #HY—W004544), 25 uM MG-132 (in DMSO) (MCE. Cat #HY-13259), 50 μM PR-619 (make it in DMSO) (MCE. Cat #HY-13814) and 1× Benzonase (Sigma. Cat #E8263) was added and incubated on ice for 3-5 min and then scraped and collected. Lysates were incubated on ice for 1 hr and vortexed every 15 minutes before spinning down at 14 000 g for 10 minutes. Supernatants were collected and flash frozen in Liquid nitrogen for 10 minutes and stored at −80 C until further used. Adjust volume of samples with lysis buffer to obtain 1 mg in total volume of 1 mL. Perform TUBES pulldown following manufacturer's procedure using TUBE1 (high capacity magnetic beads) (Cat #UM-0501M-1000. LifeSensors). Briefly, wash 150 μl beads per sample with 12× beads volume of PBST (0.1% Tweed-20) three times. Add 1 mL of protein lysate to beads and incubate for 4 hours rotating at 4 C. Wash 4× with 10× beads volume of lysis buffer and rotate for 3 minutes, then collect beads with magnet for 3 minutes before collecting buffer. Wash 1× with 5× beads volumes of PBS-T. Wash TUBEs with 100 μl wash buffer for 5 minutes on thermomixer set at 1400 rpm and 25 C. TUBE washing buffer/TUBE Elution buffer/TUBE Neutralization buffer (Cat #UM411. LifeSensors) Elute with 18 μl of TUBE elution buffer for 15 minutes on thermomixer set at 1400 rpm at 25 C, and then collect eluate and add 2 μl of neutralization buffer. Load 18 μl of pulldown sample and 10 μg of input samples onto gel for western blot using standard methods with following antibodies: AKT (pan) (C67E7) (CST. Cat #4691S). β-Actin antibody (Cat #A1978, sigma) (Dilution. 1:2000) Anti-rabbit IgG. HRP-linked Antibody (CST. Cat #7074S) (Dilution, 1:2000)

AKT1 E17 = molecular target: T1, AKT1 E17 (Homo sapiens, UniProt P31749, E17K); test: AKT plasma membrane translocation assay (AKT1 E17K-SmBiT / LCK1-LgBiT luminescence); conditions: KU-19-19 cells transfected with AKT1E17K-SmBIT and LCK1-LgBiT, read up to 1 hr
T1 construct: expressed in transfected cells; host or cells: KU-19-19
Experimental: AKT plasma membrane translocation assay
Seed 1.5×10^6 KU-19-19 cells in 10 cm dish. Transfect cells at 70% cell confluency with 5 ug AKTIE17K-SmBIT and 0.5 ug LCK1-LgBiT with Jet-Optimus transfection reagent. Incubate for 4-5 hours at 37c 5% CO2 TC incubator. Split and seed 10K cells in 40 ul media per well in 384 well plate and incubate over night at 37° C. CO2 free TC incubator. Add 10 ul of 5× Vivazine substrate (prepared in CO2 independent medium) to cells and shake palte to mix for 30 seconds. Read Luminescence for 100 minutes until signal is stable (1 read per minute). Add 50 nl/well of 3 uM compound stock to cells.

KU1919.1 = test: Cell Titer Glo (CTG) proliferation assay, KU1919; conditions: Homo sapiens, KU-19-19; KU1919.1 cells, 72.0 hrs.; read-out: AVE CTG Proliferation KU1919.1 72.0 hrs.
Method in brief: (§1)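 After overnight seeding at 37 °C, 5% CO2, cells were exposed to compound for 3 days. Viability read by CellTiter-Glo luminescence after 30 min at room temperature.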

MDAMB231.1 = test: Cell Titer Glo (CTG) proliferation assay, MDA-MB-231; conditions: Homo sapiens, MDA-MB-231; MDAMB231.1 cells, 72 hrs.; read-out: AVE CTG Proliferation MDAMB231.1 72 hrs.
Experimental: Seed cells in 40 μL of cell culture media into each well of 384-well cell culture plate, spin them at room temperature at 1,000 RPM for 1 minute and then transfer the plates into 37° C. 5% CO2 incubator overnight. Next day, treat cells with 40 nL of diluted compound and return to incubator. After compound treatment for 3 days, Add 30 μL of CellTiter-Glo reagent (Promega) into each well to be detected. Then place the plates at room temperature for 30 min followed by reading on EnVision. Inhibition activity calculated as % DMSO=100×(LumSample-Lum low control)/(Lum high control-Lum low control) where high control is from cells treated with 0.1% DMSO and Low control obtained from PBS only. Use XLFit (equation 201) to calculate IC50 (A+ ((B−A)/(1[…]((x/C)^D)))) where A: Bottom, B: Top, C: IC50, D: Slope.

MDAMB468.1 = test: Cell Titer Glo (CTG) proliferation assay, MDA-MB-468; conditions: Homo sapiens, MDA-MB-468; MDAMB468.1 cells, 72.0 hrs.; read-out: AVE CTG Proliferation MDAMB468.1 72.0 hrs.
Method in brief: as §1

T1 sequence (P31749 whole entry E17K): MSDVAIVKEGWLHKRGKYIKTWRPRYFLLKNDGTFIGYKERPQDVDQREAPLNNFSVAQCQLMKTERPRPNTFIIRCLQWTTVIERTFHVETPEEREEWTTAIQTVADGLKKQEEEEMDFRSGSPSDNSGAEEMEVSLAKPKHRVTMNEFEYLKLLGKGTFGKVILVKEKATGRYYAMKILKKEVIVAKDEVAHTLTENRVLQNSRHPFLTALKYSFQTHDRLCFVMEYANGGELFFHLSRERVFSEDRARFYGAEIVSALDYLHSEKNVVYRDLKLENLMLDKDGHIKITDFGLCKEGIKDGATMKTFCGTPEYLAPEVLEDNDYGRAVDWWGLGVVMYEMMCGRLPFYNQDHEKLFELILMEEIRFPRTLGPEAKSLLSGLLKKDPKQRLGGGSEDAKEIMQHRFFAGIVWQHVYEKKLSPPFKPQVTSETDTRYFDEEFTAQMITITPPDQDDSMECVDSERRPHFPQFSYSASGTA

Reduced AKT1 E17 plasma membrane translocation relative to PBM (AKT1 E17)	IC50 (MDAMB231.1)	IC50 (MDAMB468.1)	Structure (SMILES)	Reduced AKT ubiquitination relative to PBM (AKT)	IC50 (KU1919.1)
Yes	1 to 5 µM	1 to 5 µM	NC1(C(=O)N[C@@H](CCN2CCN(C(=O)CN3CCC(OC4CCN(C(=O)[C@H](NC(=O)c5cccc(C6CN(C(=O)CNCc7ccc(F)cc7F)C6)c5)C5CCCCC5)CC4)CC3)CC2)c2ccc(Cl)cc2)CCN(c2ncnc3[nH]ccc23)CC1 [Compound I-242]	Yes	0.5 to 1 µM
Yes	–	–	CCOc1cc(OC)ccc1CNCC(=O)N1CCCC(c2cccc(C(=O)N[C@@H](C(=O)N3CCN(CC4CCN(CC(=O)N5CCN(CC[C@H](NC(=O)C6(N)CCN(c7ncnc8[nH]ccc78)CC6)c6ccc(Cl)cc6)CC5)CC4)CC3)C3CCCCC3)c2)C1 (some centres unmarked) [Compound I-46]	Yes	–
Yes	1 to 5 µM	1 to 5 µM	CC(C)(C)OC(=O)N[C@@H](C(=O)N1CCC(OC2CCN(CC(=O)N3CCN(CC[C@H](NC(=O)C4(N)CCN(c5ncnc6[nH]ccc56)CC4)c4ccc(Cl)cc4)CC3)CC2)CC1)C1CCCCC1 [Compound I-312]	Yes	1 to 5 µM
Yes	1 to 5 µM	1 to 5 µM	NC1(C(=O)N[C@@H](CCN2CCN(C(=O)CN3CCC(OC4CCN(C(=O)[C@H](NC(=O)c5cccc(C6CCCN(C(=O)C7CC7)C6)c5)C5CCCCC5)CC4)CC3)CC2)c2ccc(Cl)cc2)CCN(c2ncnc3[nH]ccc23)CC1 (some centres unmarked) [Compound I-254]	Yes	1 to 5 µM
